# Laboratory results from PMC8551334 (Scientific Reports, 2021).
# Where two headings read alike, the source gives them in different places.
# What was measured:
# [1] = Cytotoxicity of flavonoids in Vero cells by MTS assay; format: cell-based, African green monkey; conditions: African green monkey
# Procedure: (§1) The cytotoxic potential of flavonoids in Vero cells was assessed by MTS assay. Briefly, confluent Vero cells in a 96 well plate were treated with different concentrations of flavonoids in triplicates with DMEM containing 2% FBS. After 2 days, 20 μL of 3-(4,5-Dimethylthiazol-2-yl)-5-(3-carboxymethoxyphenyl)-2-(4-sulfophenyl)-2H-tetrazolium (MTS) reagent (Promega, France) was added to each well. After 1 h of incubation at 37 °C, the cells were agitated, and the absorbance was measured at 490 nm in a microplate reader (Tecan, Infinite M2000, Switzerland). Maximum non-toxic dose (MNTD80) and 50% cytotoxic concentration (CC50) were calculated by non-linear regression using prism software (GraphPadPrism8, USA).
# (§2) The maximum non-toxic dose (MNTD80) and 50% of inhibition (IC50) of flavonoids in Vero cells were calculated using Prism software (GraphPadPrism8, CA, USA) by applying four-parameter logistic non-linear regression model. The selectivity index (SI) was calculated as SI = CC50/IC50. Data presented are the mean ± SEM of three independent experiments. The student t-test was used to analyze the antiviral activity of flavonoids compared to a positive control (*p < 0.05, **p < 0.01, ***p < 0.001, ****p < 0.0001).
# [2] = system: Vero cells; experiment: as above; format: cell-based, African green monkey; conditions: 48 h; for Concentrations up to which no significant cytotoxic effects were seen: African green monkey; for MNTD80 (maximum non-toxic dose, 80% of cells viable): Vero cells, MTS assay, mean ± SEM
# Procedure: as §1, §2
# [3] = system: DENV-3; experiment: Virucidal assay against extracellular DENV-3, FFURA (foci reduction); format: cell-based, dengue virus; conditions: for IC50: extracellular DENV-3, reduction in virus foci, mean ± SEM; for Viral foci reduction at highest concentration, virucidal assay: silymarin 200 µg/mL, baicalein 100 µg/mL, baicalin 20 µg/mL, DENV-3
# Procedure: (§3) The antiviral activity of flavonoids was determined by measuring the reduction in the number of DENV infectious foci after treatment. The antiviral assays were performed based on Zandi et al.[14] with minor modifications. Briefly, a confluent monolayer of Vero cells seeded in 24-well plates was treated with flavonoids before or after or with the virus infection and incubated for 4 days. The virus foci were visualized using immunostaining. The flavonoids' antiviral activities were determined by calculating the percentage of foci reduction (%RF) according to the following equation: Percentageofinhibition%=(C-T)/C×100% where, C is the number of foci without the flavonoid treatment (control). T is the number of foci with the respective flavonoid treatment.
# (§4) After 1 h, the flavonoid-treated virus was used to infect Vero cells at 37 °C for 1 h. Then, the unabsorbed virus was removed, and the cells were washed and overlaid with 1 mL of overlay medium. After 4 days, the reduction in foci was determined by immunostaining. Another parallel experiment was carried out by replacing the overlay medium with DMEM supplemented with 2% FBS to determine the reduction in viral RNA copy number by qRT-PCR as previously described.
# as §2
# [4] = system: DENV-3; experiment: Virucidal assay against extracellular DENV-3, qRT-PCR (viral RNA copy number); format: cell-based, dengue virus; conditions: for IC50: Dengue virus, DENV3, extracellular DENV-3, reduction in viral RNA copy number, mean ± SEM
# Procedure: (§5) Viral RNA extraction was performed using QIAamp^R Viral RNA extraction kit (QIAGEN, Germany), and viral RNA copy number was quantified using the genesig Real-Time qRT-PCR Standard Kit (PrimerDesign, UK). The reactions were in a final volume of 20 μL containing 10 μL of the master mix, 1 μL of probe/primer mix, 4 μL of nuclease-free water, and 5 μL of viral RNA template. Quantitative PCR was performed using a CFX96 Touch™ Real-Time PCR Detection System (Bio-Rad, USA.) with the following conditions: 10 min at 55 °C (reverse transcription), 2 min at 95 °C (enzyme activation) followed by 50 cycles of amplification (10 s at 95 °C, 60 s at 60 °C). The viral RNA copy number was determined based on the threshold cycles (Ct) and standard curve generated from known RNA standards.
# as §4, §2
# [5] = system: DENV-3 progeny; experiment: Post-infection assay, intracellular DENV-3 progeny, FFURA; format: cell-based, dengue virus; conditions: for IC50: 48 h treatment, mean ± SEM, read-out: IC50 against DENV-3 progeny, FFURA
# Procedure: as §3
# (§6) To determine the activity of flavonoids in inhibiting the intracellular viral progeny, Vero cells (1 × 10^5 cells/well) in a 24-wells plate were infected with DENV-3 (MOI = 0.1) for 1 h at 37 °C. […] After 48 h, the viral supernatant was collected, and twofold dilution was used to reinfect fresh monolayer of Vero cells, and the reduction in viral titer was quantified using FFURA and qRT-PCR.
# as §2
# [6] = system: DENV-3 progeny; experiment: Post-infection assay, intracellular DENV-3 progeny, qRT-PCR; format: cell-based, dengue virus; conditions: for IC50: Dengue virus, DENV3, 48 h treatment, mean ± SEM, read-out: IC50 against DENV-3 progeny, qRT-PCR
# Procedure: as §5, §6, §2
# [7] = system: DENV-3; experiment: Time course assay for virucidal activity; format: cell-based, dengue virus; conditions: for Time taken to achieve 50% viral infectivity inhibition: co-incubation with DENV-3
# Procedure: Vero cells (1 × 10^5 cells/well) were grown overnight in a 24-well plate. […] Cells were infected with the flavonoid-treated virus and incubated at 37 °C for 1 h. Then, the unabsorbed virus was removed, and the cells were washed and overlaid with 1 mL of overlay medium. After 4 days, the reduction in foci was determined by immunostaining.
# [8] = system: DENV-3; experiment: Attachment assay; format: cell-based, dengue virus
# Procedure: Vero cells (1 × 10^5 cells/well) were grown overnight in a 24-well plate. […] After 1 h, the flavonoid-treated virus is incubated on ice for 15 min. Next, pre-chilled Vero cells were infected with the pre-chilled flavonoid-treated virus at 4 °C for 1 h to allow virus attachment. Then, the unabsorbed virus was removed, and the cells were washed and overlaid with 1 mL of overlay medium. After 4 days, the reduction in foci was determined by immunostaining.
# [9] = system: DENV-3; experiment: Entry assay; format: cell-based, dengue virus
# Procedure: Pre-chilled DENV-3 (80 FFU/well) in the absence of flavonoids were added to the pre-chilled Vero cells and incubated at 4 °C to allow virus attachment. […] After that, the medium containing flavonoids was removed, and Vero cells were washed and treated with acidic PBS (pH 3) for 60 s to inactivate the extracellular virus. After 60 s, the acidic PBS was neutralized by alkaline PBS (pH 11) in each well. Next, cells were then washed with serum-free media and overlaid with 1 mL of overlay medium. After 4 days, the reduction in foci was determined by immunostaining.
# [10] = system: DENV-3; experiment: FACS neutralization test (FNT); format: cell-based, dengue virus; conditions: for FACS gating percentage (FITC-positive population): 10,000 events
# Procedure: Vero cells were seeded in 24 well plates at a density of 1 × 10^5 cells/well and incubated overnight. The antiviral assays were done using MOI 0.5 DENV-3, and FNT was carried out 48 h post-infection. Viral infected cells were harvested by trypsinization and centrifugation (1500 rpm, 5 min). Harvested cells were washed with PBS and fixed with 250 µL of BD Cytofix/Cytoperm™ Fixation/Permeabilization solution kit with BD GolgiStop™ (BD Biosciences, USA) solution and incubated on ice for 20 min in the dark. The cells were centrifuged at 3000 rpm for 2 min and washed two times with stain buffer (PBS + 5%FBS). Staining was performed with 50 µL of anti-dengue virus type III primary antibody, clone 5D4-11 (MAB8703 Sigma-Aldrich, USA), diluted in Cytoperm/Cytowash solution at a ratio of 1:1000 and incubated for 1 h on ice. After that, the cells were washed and stained with 50 µL of FITC-conjugated secondary antibody (Sigma-Aldrich, USA) diluted in Cytoperm/Cytowash solution at a ratio of 1:1000 and incubated for 1 h on ice in the dark. The samples were analyzed in a BD FACSCalibur flow cytometer (BD Biosciences, USA) using BD Cellquest pro software. For each sample, 10,000 events were collected, and the percent reduction in the number of infected cells was calculated using the following equation. Percentageofinhibition%=(C-T)/C×100% where, C is the percentage of viral infected cells among the 10,000 events without flavonoid treatment (control). T is the percentage of infected cells among the 10,000 events with the respective flavonoid treatment.
# Percent reduction in virus-infected cells was represented as the mean ± standard error of the mean (SEM) from triplicate assays determined from three independent experiments.
# [11] = system: Vero cells; set-up: method as in Moghaddam et al. 15; conditions: ref Moghaddam et al. 15; cited from earlier work
# [12] = system: DENV-1; experiment: Virucidal assay against DENV-1, FFURA; format: cell-based; conditions: Dengue virus, DENV1; read-out: Viral infectivity inhibition, DENV-1
# Procedure: as §3, §4
# [13] = system: DENV-2; experiment: Virucidal assay against DENV-2, FFURA; format: cell-based; conditions: Dengue virus, DENV2; read-out: Viral infectivity inhibition, DENV-2
# Procedure: as §3, §4
# [14] = system: DENV-4; experiment: Virucidal assay against DENV-4, FFURA; format: cell-based; conditions: Dengue virus, DENV4; read-out: Viral infectivity inhibition, DENV-4
# Procedure: as §3, §4
# [15] = system: EVA-71; conditions: cited from earlier work
# [16] = Dengue virus, DENV3, post-infection assay
# [17] = Dengue virus, DENV3, read-out: Maximum inhibition of intracellular viral progeny infectivity
# [18] = silymarin 200, baicalein 100, baicalin 20 µg/mL
smiles,measurement,setting,value
O=C(O)[C@H]1O[C@@H](Oc2cc3oc(-c4ccccc4)cc(=O)c3c(O)c2O)[C@H](O)[C@@H](O)[C@@H]1O [Baicalin],CC50 at 48 h,[1],54.6 ± 0.76 µg/mL
same,Concentrations up to which no significant cytotoxic effects were seen,[2],≤ 20 µg/mL
same,"MNTD80 (maximum non-toxic dose, 80% of cells viable)",[2],19.15 ± 0.07 µg/mL
same,IC50,"[3]; Dengue virus, DENV3",7.38 ± 1.1 µg/mL
same,"SI (CC50/IC50), virucidal assay, FFURA",[3]; extracellular DENV-3,7.40
same,"Viral foci reduction at highest concentration, virucidal assay",[3],76%
same,IC50,[4],17.4 ± 6.51 µg/mL
same,"SI (CC50/IC50), virucidal assay, qRT-PCR",[4]; extracellular DENV-3,3.14
same,IC50,[5]; [16],5.31 ± 1.96 µg/mL
same,inhibition at 20 µg/mL,[5]; [17],81%
same,"SI (CC50/IC50) against DENV-3 progeny, FFURA",[5]; post-infection assay,10.29
same,"SI (CC50/IC50) against DENV-3 progeny, qRT-PCR",[6],12.06
same,IC50,[6],4.53 ± 0.62 µg/mL
same,inhibition at 20 µg/mL,"[7]; Dengue virus, DENV3, 1 h, read-out: Viral infectivity inhibition at 60 min co-incubation (maximum)",66.9%
same,Time taken to achieve 50% viral infectivity inhibition,[7]; [18],25.8 min
same,inhibition at 20 µg/mL,"[8]; Dengue virus, DENV3, Vero, read-out: Inhibition of viral attachment",48.5 ± 9.1%
same,inhibition at 20 µg/mL,"[9]; Dengue virus, DENV3, Vero, read-out: Inhibition of viral entry",49.8 ± 8.78%
same,FACS gating percentage (FITC-positive population),[10]; [18],42.35%
same,inhibition at 20 µg/mL,"[10]; Dengue virus, DENV3, 48 h, read-out: Percentage of inhibition of DENV-3 infected cell population (FNT)",31.9%
same,CC50,[11],290.9 µg/mL
O=c1cc(-c2ccccc2)oc2cc(O)c(O)c(O)c12 [Baicalein],CC50 at 48 h,"[1]; Vero cells, MTS assay, 48 h, mean ± SEM, read-out: CC50 (half maximum cytotoxic concentration)",271 ± 6.57 µg/mL
same,Concentrations up to which no significant cytotoxic effects were seen,[2],≤ 100 µg/mL
same,"MNTD80 (maximum non-toxic dose, 80% of cells viable)",[2],122.95 ± 2.37 µg/mL
same,IC50,"[3]; Dengue virus, DENV3",12.7 ± 3.49 µg/mL
same,inhibition at 100 µg/mL,"[3]; Dengue virus, DENV3, read-out: Viral infectivity inhibition, DENV-3",99.68 ± 0.1%
same,"Viral foci reduction at highest concentration, virucidal assay",[3],99.78%
same,IC50,[4],17.2 ± 2.48 µg/mL
same,IC50,[5]; [16],34.7 ± 6.71 µg/mL
same,inhibition at 100 µg/mL,[5]; [17],79.7%
same,IC50,[6],29.7 ± 12.8 µg/mL
same,Viral infectivity inhibition achieved at 0 min,"[7]; 0 min co-incubation, silymarin 200, baicalein 100, baicalin 20 µg/mL",62.45 ± 3.67%
same,Viral infectivity inhibition at 60 min co-incubation (maximum),"[7]; 60 min co-incubation, silymarin 200, baicalein 100, baicalin 20 µg/mL",97.24%
same,Time taken to achieve 50% viral infectivity inhibition,[7]; [18],0 min
same,Co-incubation time to reach up to 75% viral infectivity inhibition,"[7]; silymarin 200, baicalein 100 µg/mL",15 min
same,Inhibition of viral attachment,"[8]; DENV-3 to Vero cells, silymarin 200, baicalein 100, baicalin 20 µg/mL",95.59 ± 1.44%
same,Inhibition of viral entry,"[9]; DENV-3 into Vero cells, silymarin 200, baicalein 100, baicalin 20 µg/mL",57.91 ± 11.65%
same,FACS gating percentage (FITC-positive population),[10]; [18],0.44%
same,Percentage of inhibition of DENV-3 infected cell population (FNT),"[10]; MOI 0.5, 48 h post-infection, silymarin 200, baicalein 100, baicalin 20 µg/mL",97.92%
same,inhibition at 100 µg/mL,[12],96.7 ± 2.1%
same,inhibition at 100 µg/mL,[13],97.2 ± 1.41%
same,inhibition at 100 µg/mL,[14],80.49 ± 0.26%
same,Virucidal effect against EVA-71,"[15]; silymarin at < 1 min contact, baicalein maximum at 60 min",60%
same,Period of contact (co-incubation time) needed for the virucidal effect,"[15]; silymarin for 65% effect, baicalein for maximum of 60% effect",60 min
